Usually clearance stands for the rate of elimination divided by the concentration. High values mean efficient removal, low ones inefficient removal. In general, half-life refers to the time needed for the level to fall by half in the phase considered.

The values below come from patent US20090068243A1, “Novel formulations for delivery of antiviral peptide therapeutics” (priority 2007, published 2009).

The nature of data set [1]: Intravenous pharmacokinetics in cynomolgus monkeys. Type of data set: in vivo, cynomolgus monkeys (Macaca fasicularis). The following applies: for clearance / half-life: cynomolgus monkey, plasma, iv, dosed intravenously; for half-life: read-out: Half-life (t ½; hr) (converted); for biological half-life relative to base sequence, in words: comment on Table 2. How it is done: For determining pharmacokinetic properties, an HIV fusion inhibitor peptide or a base sequence from which an HIV fusion inhibitor peptide is derived was dosed intravenously in cynomolgus monkeys (Macaca fasicularis) (other animal models may be used for determining pharmacokinetic properties, as known in the art). At various times post-dose, blood samples were drawn and plasma isolated by centrifugation. Plasma samples were stored frozen until analysis by LC-MS (liquid chromatography/mass spectrometry) in the electrospray, positive-ion mode. An HIV fusion inhibitor or base sequence was eluted from a C18 or C8 HPLC column with a gradient of acetonitrile in a buffer of 10 mM ammonium acetate, pH 6.8. At the time of analysis, plasma samples were deproteinated with either two or three volumes of acetonitrile containing 0.5% formic acid. Duplicate calibration standards in cynomolgus plasma samples were prepared at the same time as the samples and analyzed before and after the samples containing either HIV fusion inhibitor peptide or base sequence. Pharmacokinetic properties were calculated from the plasma concentration-time data using either mono-exponential or bi-exponential mathematical models. Models were derived by non-linear least squares optimization. A 1/C^2 weighting of concentrations was used. The following equations were used to calculate area-under the plasma concentration vs. time curve (AUC), total body clearance (Cl), and terminal elimination half-life (t ½).
Where A and B are intercepts and a and b are the rate constants of the exponential equations describing the distribution and elimination phases, respectively. When mono-exponential models were used, the “A” and “a” properties were eliminated.
Cl=Dose/AUC (expressed in L/K/hr)
t½=0.6903/b (expressed in hr)

Data set [2] in a line: Stability in aqueous solution (PBS), peptide remaining in solution by HPLC. Type of data set: physicochemical. The following applies: 10 mg/ml in PBS, about pH 7.3 to 7.5, 37° C., time point of 1 week.

Bounds are passed on as bounds.

As for `CC[C@H](C)[C@H](NC(=O)[C@H](C)NC(=O)[C@H](CCCNC(=N)N)NC(=O)[C@H](CC(=O)O)NC(=O)[C@H](Cc1c[nH]c2ccccc12)NC(=O)[C@H](C)NC(=O)[C@H](CCC(=O)O)NC(=O)[C@H](Cc1c[nH]c2ccccc12)NC(=O)[C@@H](NC(=O)[C@@H](NC(C)=O)[C@@H](C)O)[C@@H](C)O)C(=O)N[C@@H](C)C(=O)N[C@@H](CCC(=O)O)C(=O)N[C@@H](Cc1ccc(O)cc1)C(=O)N[C@@H](C)C(=O)N[C@@H](C)C(=O)N[C@@H](CCCNC(=N)N)C(=O)N[C@H](C(=O)N[C@@H](CCC(=O)O)C(=O)N[C@@H](C)C(=O)N[C@@H](CC(C)C)C(=O)N[C@H](C(=O)N[C@@H](CCCNC(=N)N)C(=O)N[C@@H](C)C(=O)N[C@@H](C)C(=O)N[C@@H](CCC(N)=O)C(=O)N[C@@H](CCC(=O)O)C(=O)N[C@@H](CCC(N)=O)C(=O)N[C@@H](CCC(N)=O)C(=O)N[C@@H](CCC(=O)O)C(=O)N[C@@H](CCCCN)C(=O)N[C@@H](CC(N)=O)C(=O)N[C@@H](CCC(=O)O)C(=O)N[C@@H](C)C(=O)N[C@@H](C)C(=O)N[C@@H](CC(C)C)C(=O)N[C@@H](CCCNC(=N)N)C(=O)N[C@@H](CCC(=O)O)C(=O)N[C@@H](CC(C)C)C(N)=O)[C@@H](C)CC)[C@@H](C)CC` [SEQ ID NO:5], in data set [1], the clearance is greater than 0.667 mL/min/kg and the half-life is 6 h. Moreover, the “peptide remaining detectable in solution” value in data set [2] is “less than 80%”.

In the case of “Ac-TTWEAWDRAIAEYAARIEALIRAAQEQQEKLEAALREL-NH2 (N-terminus and C-terminus assumed) [SEQ ID NO:7]”, in data set [1], the “biological half-life relative to base sequence, in words” value is reported as “increased biological half-life”; the clearance is less than 0.333 mL/min/kg; the half-life was 17 h.

In the case of “Ac-TTWEAWDRAIAEYAARIEALIRALQEQQEKNEAALREL-NH2 (N-terminus and C-terminus assumed) [SEQ ID NO:6]”, in data set [1], the “biological half-life relative to base sequence, in words” value is listed as “increased biological half-life”; the clearance is less than 0.333 mL/min/kg; the half-life was 15 h.

Consider “Ac-TTWEAWDRAIAEYAARIEALLRAAQEQQEKNEAALREL-NH2 (N-terminus and C-terminus assumed) [SEQ ID NO:8]”, for which, in data set [1], the “biological half-life relative to base sequence, in words” value is listed as “does not exhibit the dramatic increase in half-life”; the clearance was greater than 0.667 mL/min/kg; the half-life is 7 h.
